Measured values as given in patent publication US8088772B2, “Sulfonamides and their use as a medicament” (The Genetics Company, Inc., priority 2006, dated 2012).

What was measured:
βCatenin-BCL9 = assay: ELISA based protein-protein interaction assay; format: binding; conditions: inhibition class of the βCatenin-BCL9 interaction
Procedure: In vitro ELISA-based Protein-protein Interaction Assay
Protein Production in Bacteria
cDNAs including the binding domains of Lgs and βCatenin were fused downstream of glutathione-S-transferase (GST) cDNA in pGEX-4T inducible bacterial expression vector (Pharmacia). Fusion proteins were produced in BL21 bacteria (e.g. Stratagene) following manufacturer's recommendation.
To isolate the produced fusions protein bacteria were lysed in sonication buffer (10 mM Tris HCl pH 8.0, 150 mM NaCl, 1 mM EDTA, 1.5% sarkosyl, 2% Triton-X-100, 1 mM DTT and protease inhibitors), followed by short sonication on ice (e.g. 3 times 20 seconds at middle power) and centrifugation. Cleared supernatants were incubated under gentle rotation with glutathione beads (Amersham Pharmacia) for 2 hrs at 4° C. Finally, beads were washed several time in washing buffer (20 mM Tris pH 8.0, 200 mM NaCl, 1 mM EDTA, 1 mM DTT, 1 mM MgCl2, 0.5% NP40), and stored in storage buffer (20 mM Tris pH 8.0, 200 mM NaCl, 1 mM EDTA, 1 mM DTT, 1 mM MgCl2, 10% glycerol, 0.5% NP40, and proteinase inhibitors). The quality of the preparations was checked by SDS-gel electrophoresis by standard methods well known by persons skilled in the art. […]

Wnt pathway = assay: Cell Assay (CA): inhibition of Wnt activity in cancer cells, Tcf reporter gene; format: cell-based; conditions: inhibition class in the Cell Assay
Excerpt: Inhibition of Wnt Activity in Cancer Cells
The effect of β-catenin/BCL9 inhibitors identified in the ELISA-based protein-protein interaction assay on the Wnt pathway can be evaluated in a cell culture system using a reporter gene responsive to the Tcf/Lef family of transcription factors or by quantitative analysis of Wnt target genes in appropriate cell lines.
A reporter gene is a construct which comprises a readily detectable or assayable gene such β-galactosidase, green fluorescent protein, chloramphenicol acetyltransferase or luciferase, linked in cis to a transcription factor response element and a minimal promoter. Depending on the expression vectors used, this protocol can be applied, e.g. for mammalian as well as for Drosophila cell lines. For instance, colon cancer cells with constitutively active Wnt pathway like DLD-1 or SW620 (ATCC) are a well suitable system. Hereby, a Tcf-4 driven luciferase reporter plasmid (i.e. TOP-FLASH, Upstate biotechnology, New York, USA) is transiently or stably transfected into cells known in the art. Any means for introducing genetic material into cells can be used, including but not limited to infection, electroporation or transfection. For instance, to introduce DNA into DLD-1 cells, a lipofection agent like the Lipofectamine transfection reagent (Life Technologies, Inc.) can be used. By transient transfection protocols, a second reporter gene, e.g. the renilla luciferase reporter plasmid pRL-SV40 (Promega Corporation, Madison USA), needs to be co-transfected to normalize for transfection efficiency. Drugs are added to the media 24 h after trans-fection (transient transfection) or 24 h after seeding of the cells (stably transfected cells). Cell extracts are prepared 24 to 48 h later and assayed for reporter gene activity as described by the manufacturer (eg. for luciferase activity: Promega Corporation). Compounds reducing reporter gene activity more than 50% compared to solvent alone treated cells are considered as hits. In parallel, toxicity can be assessed for instance by the yellow tetrazolium salt cell proliferation assay (MTT) assay.

SMILES	ELISA (βCatenin-BCL9)	CA (Wnt pathway)
O=C(Cc1ccc(Cl)cc1)Nc1ccc(N2CCOCC2)c(S(=O)(=O)Nc2ccccc2Cl)c1 [TGC0011574]	3 (41-60% inhibition)	2.5
C[n+]1ccccc1/C=N/Nc1ccc([N+](=O)[O-])cc1S(=O)(=O)Nc1ccccc1Cl.[I-] [TGC0011514]	1 (0-20% inhibition)	1 (0-20% inhibition)
COc1ccc(/C=N/Nc2ccc(N)cc2S(=O)(=O)Nc2ccccc2Cl)cc1OC [TGC0011584]	1 (0-20% inhibition)	3 (41-60% inhibition)
Cc1ncc(CO)c(/C=N/Nc2ccc([N+](=O)[O-])cc2S(=O)(=O)Nc2ccccc2Cl)c1O [TGC0010626]	3 (41-60% inhibition)	4.5
O=[N+]([O-])c1ccc(N/N=C/c2ccc(CN3CCOCC3)cc2)c(S(=O)(=O)Nc2ccccc2Cl)c1 [TGC0011404]	3 (41-60% inhibition)	4 (61-80% inhibition)
O=[N+]([O-])c1ccc(N/N=C/c2ccccc2-c2cccnc2)c(S(=O)(=O)Nc2ccccc2Cl)c1 [TGC0011409]	3.5	4.5
O=[N+]([O-])c1ccc(NN=C(Cc2ccccc2)Cc2ccccc2)c(S(=O)(=O)Nc2ccccc2Cl)c1 [TGC0010661]	2 (21-40% inhibition)	3 (41-60% inhibition)
O=[N+]([O-])c1ccc(NNS(=O)(=O)c2ccc(Cl)cc2)c(S(=O)(=O)Nc2ccccc2Cl)c1 [TGC0011576]	3 (41-60% inhibition)	5 (81-100% inhibition)
O=[N+]([O-])c1ccc(NNCc2cc(F)cc(F)c2)c(S(=O)(=O)Nc2ccccc2Cl)c1 [TGC0012266]	2.5	1.5
O=[N+]([O-])c1ccc(N/N=C/c2ccccn2)c(S(=O)(=O)Nc2ccccc2Cl)c1 [TGC0011401]	1.5	4 (61-80% inhibition)
O=[N+]([O-])c1ccc(N/N=C/c2cccc(Oc3ccccc3)c2)c(S(=O)(=O)Nc2ccccc2Cl)c1 [TGC0010583]	2 (21-40% inhibition)	4 (61-80% inhibition)
COc1ccc(/C=N/Nc2ccc([N+](=O)[O-])cc2S(=O)(=O)Nc2ccccc2Cl)cc1OC [TGC0011564]	1 (0-20% inhibition)	3.5
CC/C=N/Nc1ccc([N+](=O)[O-])cc1S(=O)(=O)Nc1ccccc1Cl [TGC0011361]	1 (0-20% inhibition)	3.5
